“Also recorded” adds a separate entry of the source.

In one test the target is T1, PgpB (Escherichia coli, UniProt P0A924).
T1 construct: made in house
Briefly: C55-PP phosphatase assay of PgpB. It is filed as biochemical, E. coli. Particulars: 100 µM compound; data not shown. As for the experimental part:
C43(DE3) cells carrying pTrcBac30 plasmid were used for the expression of N-terminally His6-tagged BacA (His6-BacA) protein from E. coli. Cells were grown in 2YT-ampicillin at 37 °C and when the OD600 reached 0.9, the temperature of the culture was decreased to 22 °C and protein expression was induced by addition of 1 mM IPTG. Incubation was continued overnight at 22 °C and bacteria were harvested in the cold and washed in a buffer containing 20 mM Tris-HCl, pH 7.4, 0.4 M NaCl, 10% glycerol and 10 mM β-mercaptoethanol (buffer A). The cells were disrupted by three successive passages through a French press and the suspension was centrifuged at 200,000× g, 4 °C for 45 min. The pellet of membranes was washed with buffer A. The membranes were resuspended in buffer A supplemented by 2% DDM detergent. […] Fractions containing the BacA protein were subjected to an additional gel-filtration purification step on Superdex 200 (HiLoadTM 16/600 SuperdexTM 200) equilibrated in 0.1% DDM-containing buffer A. 1-ml fractions were collected and analysed by SDS-PAGE. […]
The C55-PP phosphatase activity of BacA was assessed by measuring the percentage of transformation of [^14C]C55-PP into [^14C]C55-P upon incubation with BacA by TLC analysis. […] The radioactive spots were located and quantified with a radioactivity scanner. […] The C55-PP phosphatase activity of PgpB was measured as described for BacA.

In test [1] the test system is E. coli BW25113 wild type strain. Briefly: Growth inhibition in 2YT liquid medium. It is filed as cell-based. To be noted: 500 µM compound. The procedure:
(§1) For compounds displaying inhibitory activity on BacA catalysis, their antibacterial activity was tested on different E. coli strains by monitoring bacterial growth in the presence of compounds (125, 250 and 500 µM). One colony was cultured in 10 ml of 2YT liquid medium and incubated at 37℃ for 6 h. The absorbance of the culture at 600 nm (A600) was measured to prepare a bacterial suspension in 2YT liquid medium at 15.10^6 CFU/ml (A600 = 1 corresponds to 3.10^8 CFU/ml). The bacterial suspension (200-µl) was then grown on 96-well plates in the presence or not of compounds (5-µl), which was added from a stock solution prepared in DMSO. Negative controls were then performed by growing the cells without inhibitors in 2YT medium and in 2YT medium supplemented with 2.5% of DMSO. The plates were incubated at 37℃ overnight with A600 measurements every 10 min using a Tecan F200 PRO microplate reader (iControl software).
(§2) Two compounds, 3 and 5, were assessed for antibacterial activity using the broth microdilution method against the E. coli BW25113 wild type strain. […] Considering the plurality of C55-PP phosphatases in E. coli, the inhibition of BacA may not induce growth inhibition as long as the PAP2 enzymes (PgpB, YbjG, and LpxT) are functional. Consequently, compounds 3 and 5 were tested against a BW25113 variant in which the PAP2 enzymes were depleted (DMEG9 strain, alias BWbacA-single). […]

Test [2] has as its system BWbacA-singleΔtolC strain carrying the empty vector (pTRCH30). Briefly: Growth inhibition, control strain carrying the empty vector. The format is cell-based, E. coli. To be noted: 500 µM compound. The procedure: as §1
(§3) To further assess the specificity of compounds 3 and 5 with respect to BacA, they were tested against the strain depleted of both TolC and PAP2 but overexpressing an ectopic copy of the bacA gene on a plasmid.

The subject of test [3] is DMEG9 strain, alias BWbacA-single. Briefly: Growth inhibition in 2YT liquid medium. Particulars: PAP2-depleted DMEG9; 500 µM compound. The format is cell-based, E. coli. As for the experimental part: as §1, §2
Test [4] concerns BWbacA-singleΔtolC strain. Briefly: Growth inhibition / MIC in 2YT liquid medium. It is filed as cell-based, E. coli. To be noted: for MIC: BWbacA-singleΔtolC strain; for class of antibacterial activity (Figure S2): BWΔtolC and BWbacA-singleΔtolC strains, 250 and 500 µM; for growth inhibition: TolC/PAP2-depleted BWbacA-singleΔtolC, 500 µM compound. As for the experimental part:
(§4) Bacteria were grown in 2YT broth supplemented, when required, with ampicillin or kanamycin at concentrations of 100 and 50 µg/ml, respectively. The BWΔtolC strain was obtained from the Keio collection. The BWΔbacAΔtolC and BWbacA-singleΔtolC were generated by P1 transduction of the ΔtolC::Kan^R cassette from BWΔtolC strain to BWΔbacA and DMEG9 recipient strains, respectively. The strains S. aureus RN4220 and S. pneumoniae R6 were used to evaluate the antibacterial activity of certain compounds. S. aureus was grown on BHI (Brain Heart Infusion) broth and S. pneumoniae was grown on Colombia broth supplemented with 5% horse blood.
as §1

Another test deals with BWΔbacAΔtolC strain. The test can be described thus: Growth inhibition in 2YT liquid medium. It is filed as cell-based, E. coli. To be noted: BacA and TolC depleted; 500 µM compound. As for the experimental part:
as §4
For compounds displaying inhibitory activity on BacA catalysis, their antibacterial activity was tested on different E. coli strains by monitoring bacterial growth in the presence of compounds (125, 250 and 500 µM). One colony was cultured in 10 ml of 2YT liquid medium and incubated at 37℃ for 6 h. The absorbance of the culture at 600 nm (A600) was measured to prepare a bacterial suspension in 2YT liquid medium at 15.10^6 CFU/ml (A600 = 1 corresponds to 3.10^8 CFU/ml). […] The plates were incubated at 37℃ overnight with A600 measurements every 10 min using a Tecan F200 PRO microplate reader (iControl software). […]

The test system of another test is BWΔtolC strain. Briefly: Growth inhibition in 2YT liquid medium (off-target activity). The format is cell-based, E. coli. Particulars: for growth inhibition: TolC-depleted BWΔtolC; for Off-target activity: antibacterial activity against BWΔtolC. The procedure: as §4, §1
Test [5] relates to BWbacA-singleΔtolC strain overexpressing an ectopic copy of the bacA gene on a plasmid. The test can be described thus: Growth inhibition upon bacA overexpression. The format is cell-based, E. coli. Particulars: bacA overexpressed in trans; 500 µM compound. The procedure: as §1, §3
A further test concerns S. pneumoniae R6. Briefly: Double-disc diffusion test with bacitracin. The format is cell-based. As for the experimental part:
To evaluate the antibacterial activity of the compounds per se or in combination with bacitracin, against S. aureus RN4220 and S. pneumoniae R6 strains, disc diffusion method was used according to the CLSI guidelines. Bacterial suspensions equivalent to 10^8 CFU/ml were prepared in 5 ml BHI broth. A BHI-agar plate (for S. aureus) or Colombia-agar plate supplemented with 5% Horse Blood (for S. pneumoniae) were then flooded with a bacterial suspension for 1 min to allow the bacteria to sediment before removing the excess of medium. The commercial discs loaded with 130 µg of bacitracin (Biorad) was positioned on top of the bacterial lawn at distances of 10 mm (center to center) from another sterile and blank disc, which was then loaded with 7 µL of a compound solution (50 µg). The plates were incubated at 37 °C for 24 h and the diameter of the growth inhibition zone was measured and a photo of the plates was acquired using a ChemiDoc™ MP System.
Figure S3. Test of antibacterial activity of BacA inhibitors against S. aureus RN4220 (A) and S. pneumonia R6 (B) strains. Bacitracin (130 µg)- and compound (50 µg)-loaded discs were positioned at 10 mm of distance on top of a bacterial lawn. The plates were incubated overnight at 37 °C. These images are representative of three independent tests. […]
In general terms: In agar diffusion tests the substance spreads into inoculated agar from a disc or well.

T1 sequence (P0A924 whole entry): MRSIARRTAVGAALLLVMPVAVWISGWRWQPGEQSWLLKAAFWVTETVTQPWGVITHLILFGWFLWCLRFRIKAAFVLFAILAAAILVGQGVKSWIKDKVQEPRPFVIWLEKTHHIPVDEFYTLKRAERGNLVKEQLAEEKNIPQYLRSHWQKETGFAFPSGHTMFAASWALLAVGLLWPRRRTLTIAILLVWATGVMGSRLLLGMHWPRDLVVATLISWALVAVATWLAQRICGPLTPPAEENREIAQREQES

The term MIC denotes the smallest concentration in the dilution series that meets the test's criterion for growth inhibition. Low values mean inhibition by little substance, high ones a need for much substance. Turning to `O=C(O)c1csc(S(=O)(=O)Nc2ccc3sccc3c2)c1` [Compound 3], the “inhibition of PgpB” value at PgpB was “not inhibited”. The growth inhibition result in [1] is on record as “No growth inhibition”; in test [2], “total growth inhibition”; in test [3] it was “no growth inhibition”; in test [4], “complete growth inhibition; also recorded: total growth inhibition”; in the test on BWΔtolC strain (500 µM compound), “moderate inhibition; also recorded: significant growth inhibition”. Besides, the MIC in test [4] is 169 µg/mL; in [4] (125, 250 and 500 µM tested), 500 µM. In addition, the “class of antibacterial activity (Figure S2)” value in test [4] is “antibacterial activity on both strains”. Further, the “growth inhibition (BacA-independent activity)” value in the test with BWΔbacAΔtolC strain is “moderate inhibition; also recorded: significant, although moderate, BacA-independent activity”. The “increase of the doubling time of cells” value in the test on BWΔtolC strain (BWΔtolC, 500 µM compound) was 3 fold. In addition, the Off-target activity result with BWΔtolC strain is “Yes”. Besides, in test [5], the “growth inhibition upon bacA overexpression” value was “partially alleviated growth inhibition; also recorded: susceptibility was decreased at the level observed with the strain depleted of TolC alone”.

For `O=C(O)c1csc(S(=O)(=O)Nc2ccc(N3CCCC3)c(F)c2)c1` [Compound 4], the “inhibition of PgpB” value on PgpB is given as “not inhibited”. Further, in the test on S. pneumoniae R6 (50 µg compound disc), the “antibacterial activity per se (inhibition zone around compound-loaded disc)” value is “no inhibition zone”. Moreover, the “inhibition zone of bacitracin in proximity of the compound” value in the test on S. pneumoniae R6 (130 µg bacitracin disc, 50 µg compound disc at 10 mm) came out at 10 mm. The minimal inhibitory concentration (MIC) came out at 92 µg/mL in test [4]; 250 µM in [4] (125, 250 and 500 µM tested). In test [4], the “class of antibacterial activity (Figure S2)” value is “antibacterial activity on both strains”. In addition, the figures for the growth inhibition entry (in [4]; in the test with BWΔtolC strain (250 µM compound); with BWΔtolC strain (500 µM compound)) were “total growth inhibition”, “no effect” and “moderate inhibition”, respectively. Moreover, the Off-target activity entry with BWΔtolC strain is on record as “Yes”.

Values taken from publication PMC9127117, “Towards discovery of inhibitors of the undecaprenyl-pyrophosphate phosphatase BacA by virtual high-throughput screening” (Computational and Structural Biotechnology Journal, 2022).
